Source: patent publication US8642801B2 (BHI Limited Partnership, priority 2003, dated 2014)

Target: T1, Aβ40 and Aβ42 peptides in plasma and brain of TgCRND8 mice (Homo sapiens, UniProt P05067)
T1 construct: ELISA using Human Aβ40 and Aβ42 Fluorometric ELISA kits from Biosource; from tissue; host or cells: plasma and brain homogenate of TgCRND8 transgenic mice (hAPP transgene)
Test: Short term treatment in adult transgenic CRND8 mice overexpressing βAPP: Aβ levels in plasma and brain by ELISA
Type: in vivo, Mouse
Conditions: TgCRND8 mice
Excerpt: Transgenic mice, […]8, expressing the human amyloid precursor protein (hAPP) develop a pathology resembling Alzheimer's disease. In particular, high levels of Aβ40 and Aβ 42 have been documented in the plasma and the brain of these animals at 8-9 weeks of age, followed by early accumulation of amyloid plaques similar to the senile plaques observed in AD patients. These animals also display progressive cognitive deficits that parallel the appearance of degenerative changes. See, […], et al., J. Biol. Chem. 276, 21562-70 (2001). The short term therapeutic effect of 19 compounds of the invention was studied. […] The following abbreviations are used to designate these animals from the 3rd and 4th generation backcross in the present protocol: TgCRND8-2.B6C3F1(N3); TgCRND8-2.B6C3F1(N4). Baseline animals (Group 1) consisted of naive TgCRND8-2. B6C3F1(N3) at 11±1 weeks of age. These mice were used to determine the Aβ levels in the plasma and brain of naive transgenic animals at the initiation of treatment. […] At the end of the treatment periods, plasma and perfused brains were collected for quantification of Aβ levels. […] Plasma samples were immediately frozen and stored at -80° C. pending analysis. The brains were removed, frozen, and stored at -80° C. awaiting analysis. […] Samples were spun at 15000 g for 20 minutes and the supernatants were transferred to fresh tubes. […] The tubes were vortexed for 30 seconds and frozen at -80° C. […] Samples were thawed at room temperature, sonicated at 80° C. for 15 minutes and frozen again. This cycle was repeated 3 times to ensure homogeneity and samples were returned to -80° C. pending analysis. Aβ levels were evaluated in plasma and brain samples by ELISA using Human Aβ40 and Aβ42 Fluorometric ELISA kits from Biosource (Cat. […] In short, samples were thawed at room temperature, sonicated for 5 minutes at 80° C. (sonication for brain homogenates; no sonication for plasma samples) and kept on ice. Aβ peptides were captured using 100 μl of the diluted samples to the plate and incubated without shaking at 4° C. overnight. The samples were aspirated and the wells were rinsed 4 times with wash buffer obtained from the Biosource ELISA kit. The anti-Aβ40 or anti-Aβ42 rabbit polyclonal antiserum (specific for the Aβ40 or Aβ42 peptide) was added (100 μl) and the plate was incubated at room temperature for 2 hours with shaking. The wells were aspirated and washed 4 times before adding 100 μl of the alkaline phosphatase labeled anti-rabbit antibody and incubating at room temperature for 2 hours with shaking. The plates were then rinsed 5 times and the fluorescent substrate (100 μl) was added to the plate. The plate was incubated for 35 minutes at room temperature and the plate was read using a titer plate reader at an excitation wavelength of 460 nm and emission at 560 nm Compounds were scored based on their ability to modulate levels of Aβ peptides in the plasma and the cerebral soluble/insoluble levels in the brain. Levels of Aβ observed in the plasma and brain of treated animals were normalized using values from vehicle-treated (water) or methylcellulose-treated control groups and ranked according to the strength of the pharmacological effect. Increases in the levels of Aβ peptides are indicated using “+” symbols, while decreases in the levels of Aβ peptides are indicated using “-” symbols. The strongest effects are recorded as “+++” or “- - -” while the weakest are shown as “+” or “-”.

[1] = Brain Homogenate Methylcellulose Group, Day 14, 250 mg/kg daily oral
[2] = Brain Homogenate Methylcellulose Group, Day 28, 250 mg/kg daily oral
[3] = Plasma Methylcellulose Group, Day 28, 250 mg/kg daily oral in 1% methylcellulose, normalized to methylcellulose control
[4] = Brain Homogenate Vehicle Group, Day 14, 250 mg/kg daily
[5] = Brain Homogenate Vehicle Group, Day 28, 250 mg/kg daily
[6] = Plasma Vehicle Group, Day 14, 250 mg/kg daily subcutaneous, normalized to water vehicle control

O=S(=O)(O)CCCNC12CC3CC(CC(C3)C1)C2 [BW, 3-(1-adamantyl)amino-1-propanesulfonic acid]
Brain homogenate Aβ40 Change Insoluble [1]: −−− (decreases of 39% or more are scored as “− − −”) | Brain homogenate Aβ42 Change Insoluble [1]: −−− (decreases of 39% or more are scored as “− − −”) | Brain homogenate Aβ42 Change Soluble [1]: −− (decreases of 20 to 38% are scored as “− −”) | Brain homogenate Aβ40 Change Insoluble [2]: − (Decreases in the levels of Aβ of 5 to 19% are scored as “−”) | Brain homogenate Aβ40 Change Soluble [2]: − (Decreases in the levels of Aβ of 5 to 19% are scored as “−”) | Brain homogenate Aβ42 Change Insoluble [2]: −− (decreases of 20 to 38% are scored as “− −”) | Brain homogenate Aβ42 Change Soluble [2]: − (Decreases in the levels of Aβ of 5 to 19% are scored as “−”) | Plasma Aβ42 Change [3]: + (increases in the levels of Aβ (relative to untreated control) of 20 to 39% are scored as “+”)

CC(C)(C)NCCCS(=O)(=O)O [BX, 3-(t-butyl)amino-1-propanesulfonic acid]
Brain homogenate Aβ40 Change Insoluble [4]: −−− (decreases of 39% or more are scored as “− − −”) | Brain homogenate Aβ40 Change Soluble [4]: − (Decreases in the levels of Aβ of 5 to 19% are scored as “−”) | Brain homogenate Aβ42 Change Insoluble [4]: −−− (decreases of 39% or more are scored as “− − −”) | Brain homogenate Aβ42 Change Soluble [4]: −− (decreases of 20 to 38% are scored as “− −”) | Brain homogenate Aβ40 Change Insoluble [5]: −−− (decreases of 39% or more are scored as “− − −”) | Brain homogenate Aβ40 Change Soluble [5]: −−− (decreases of 39% or more are scored as “− − −”) | Brain homogenate Aβ42 Change Insoluble [5]: − (Decreases in the levels of Aβ of 5 to 19% are scored as “−”) | Brain homogenate Aβ42 Change Soluble [5]: −− (decreases of 20 to 38% are scored as “− −”) | Plasma Aβ40 Change [6]: +++ (increases of 70% or higher are scored as “+ + +”) | Plasma Aβ42 Change [6]: ++ (increases of 40 to 69% are scored as “++”) | Plasma Aβ40 Change (Plasma Vehicle Group, Day 28, 250 mg/kg daily subcutaneous, normalized to water vehicle control): +++ (increases of 70% or higher are scored as “+ + +”)

O=S(=O)(O)CCCNC1C2CC3CC(C2)CC1C3 (stereo not drawn) [BZ, 3-(2-adamantyl)amino-1-propanesulfonic acid]
Brain homogenate Aβ40 Change Insoluble [1]: −−− (decreases of 39% or more are scored as “− − −”) | Brain homogenate Aβ42 Change Insoluble [1]: −− (decreases of 20 to 38% are scored as “− −”) | Brain homogenate Aβ40 Change Insoluble [2]: −− (decreases of 20 to 38% are scored as “− −”) | Brain homogenate Aβ40 Change Soluble [2]: −− (decreases of 20 to 38% are scored as “− −”) | Brain homogenate Aβ42 Change Insoluble [2]: −− (decreases of 20 to 38% are scored as “− −”) | Plasma Aβ40 Change (Plasma Methylcellulose Group, Day 14, 250 mg/kg daily oral in 1% methylcellulose, normalized to methylcellulose control): + (increases in the levels of Aβ (relative to untreated control) of 20 to 39% are scored as “+”) | Plasma Aβ40 Change [3]: ++ (increases of 40 to 69% are scored as “++”) | Plasma Aβ42 Change [3]: ++ (increases of 40 to 69% are scored as “++”)
